Source: patent US20240009173A1, “Use of 5-HT3-Targeting Drugs for Treatment of Acute Kidney Injury” (priority 2020, published 2024)
Where two headings read alike, the source gives them in different places.

Tests used:
patients with AKI [1] = settings: human, in vivo
ICU patients with AKI = settings: cited from earlier work
all ICU patients = settings: cited from earlier work
patients with AKI [2] = settings: human, in vivo; remark: listed apart in the source
patients with AKI [3] = system: patients with AKI; design: species or system human; settings: in vivo
[4] = literature and/or clinical trials

Molecule	Death rate in eICU database (patients with AKI [1])	Reported for protecting effect in ICU patients with AKI (ICU patients with AKI; [4])	Reported for protecting effect in all ICU patients (all ICU patients; [4])	Death rate in MIMIC III database (patients with AKI [2])	Coefficient (patients with AKI [3])	Reported for protecting effect in ICU patients with AKI (ICU patients with AKI)	Reported for protecting effect in all ICU patients (all ICU patients)
OC[C@H]1O[C@@H](O[C@@H]2[C@@H](CO)OC(O)(CO)[C@H]2O)[C@H](O)[C@@H](O)[C@H]1O (mixture of isomers) [Lactulose]	233.56 per 1,000 patients	N	N	326.35 per 1,000 patients			
CC(=O)Nc1ccc(O)cc1 [Acetaminophen]	123.47 per 1,000 patients	N	N	181.26 per 1,000 patients	−0.040		
CC(C)(C)NCC(O)c1ccc(O)c(CO)c1 (centres unmarked) [Albuterol]	174.59 per 1,000 patients			257.20 per 1,000 patients			
CCCCc1oc2ccccc2c1C(=O)c1cc(I)c(OCCN(CC)CC)c(I)c1 [Amiodarone]	269.89 per 1,000 patients	N	N	338.95 per 1,000 patients	0.090		
CC(=O)Oc1ccccc1C(=O)O [Aspirin]	126.32 per 1,000 patients			178.97 per 1,000 patients			
CC(C)c1c(C(=O)Nc2ccccc2)c(-c2ccccc2)c(-c2ccc(F)cc2)n1CC[C@@H](O)C[C@@H](O)CC(=O)O [Atorvastatin]	88.66 per 1,000 patients			156.06 per 1,000 patients			
CC(=O)Oc1ccc(C(c2ccc(OC(C)=O)cc2)c2ccccn2)cc1 [Bisacodyl]	156.59 per 1,000 patients			194.46 per 1,000 patients	−0.021		
C[C@H](CS)C(=O)N1CCC[C@H]1C(=O)O [Captopril]		Y^19	Y^18	133.04 per 1,000 patients	−0.044		
CO/N=C(\C(=O)N[C@@H]1C(=O)N2C(C(=O)[O-])=C(C[N+]3(C)CCCC3)CS[C@H]12)c1csc(N)n1 [Cefepime]	228.51 per 1,000 patients			340.81 per 1,000 patients			
[H]/N=C(\N/C(=N/[H])NCCCCCCNC(=N)NC(=N)Nc1ccc(Cl)cc1)Nc1ccc(Cl)cc1 [Chlorhexidine]	222.98 per 1,000 patients			328.48 per 1,000 patients			
C[C@@H]1C[C@H]2[C@@H]3CCC4=CC(=O)C=C[C@]4(C)[C@@]3(F)[C@@H](O)C[C@]2(C)[C@@]1(O)C(=O)CO [Dexamethasone]	58.14 per 1,000 patients			375 per 1,000 patients			
COc1ccc([C@@H]2Sc3ccccc3N(CCN(C)C)C(=O)[C@@H]2OC(C)=O)cc1 [Diltiazem]	121.74 per 1,000 patients			274.96 per 1,000 patients			
CCCCC(CC)COC(=O)CC(C(=O)OCC(CC)CCCC)S(=O)(=O)O (centres unmarked) [Docusate]	136.48 per 1,000 patients	N	N	178.57 per 1,000 patients	−0.028		
NC(N)=Nc1nc(CSCCC(N)=NS(N)(=O)=O)cs1 [Famotidine]	184.42 per 1,000 patients			260.79 per 1,000 patients			
OC(Cn1cncn1)(Cn1cncn1)c1ccc(F)cc1F [Fluconazole]		Y^6	Y^5	333.33 per 1,000 patients			
NS(=O)(=O)c1cc(C(=O)O)c(NCc2ccco2)cc1Cl [Furosemide]	120.87 per 1,000 patients	Y^8	Y^7	214.64 per 1,000 patients	−0.036		
O=C(CCCN1CCC(O)(c2ccc(Cl)cc2)CC1)c1ccc(F)cc1 [Haloperidol]	201.23 per 1,000 patients	N	N	194.85 per 1,000 patients	−0.063		

Molecule	Death rate in eICU database (patients with AKI [1])	Reported for protecting effect in ICU patients with AKI (ICU patients with AKI; [4])	Reported for protecting effect in all ICU patients (all ICU patients; [4])	Death rate in MIMIC III database (patients with AKI [2])	Coefficient (patients with AKI [3])	Reported for protecting effect in ICU patients with AKI (ICU patients with AKI)	Reported for protecting effect in all ICU patients (all ICU patients)
NNc1nncc2ccccc12 [Hydralazine]	80.60 per 1,000 patients			155.12 per 1,000 patients	−0.035		
CC(C)[N+]1(C)[C@@H]2CC[C@H]1C[C@@H](OC(=O)C(CO)c1ccccc1)C2 (some centres unmarked) [Ipratropium]	172.83 per 1,000 patients			258.87 per 1,000 patients			
C[C@H]1COc2c(N3CCN(C)CC3)c(F)cc3c(=O)c(C(=O)O)cn1c23 [Levofloxacin]	146.84 per 1,000 patients			270.20 per 1,000 patients			
N[C@@H](Cc1cc(I)c(Oc2cc(I)c(O)c(I)c2)c(I)c1)C(=O)O [Levothyroxine]	109.02 per 1,000 patients			218.39 per 1,000 patients			
NCCCC[C@H](N[C@@H](CCc1ccccc1)C(=O)O)C(=O)N1CCC[C@H]1C(=O)O [Lisinopril]	21.71 per 1,000 patients	Y^15	Y^14	53.11 per 1,000 patients	−0.049		
Cc1ncc([N+](=O)[O-])n1CCO [Metronidazole]	230.12 per 1,000 patients			338.05 per 1,000 patients			
O=[N+]([O-])OCC(CO[N+](=O)[O-])O[N+](=O)[O-] [Nitroglycerin]	758.55 per 1,000 patients			192.42 per 1,000 patients		N	N
COc1ccnc(C[S+]([O-])c2nc3ccc(OC(F)F)cc3[nH]2)c1OC (centres unmarked) [Pantoprazole]	151.82 per 1,000 patients			254.46 per 1,000 patients	−0.025		
CC1=C(C/C=C(\C)CCC[C@H](C)CCC[C@H](C)CCCC(C)C)C(=O)c2ccccc2C1=O [Phytonadione]	335.33 per 1,000 patients	N	Y	364.17 per 1,000 patients			
CCN1CCN(C(=O)N[C@@H](C(=O)N[C@@H]2C(=O)N3[C@@H]2SC(C)(C)[C@@H]3C(=O)O)c2ccccc2)C(=O)C1=O [Piperacillin]	200.39 per 1,000 patients	N	Y	336.96 per 1,000 patients			
C[C@]12C=CC(=O)C=C1CC[C@@H]1[C@@H]2C(=O)C[C@@]2(C)[C@H]1CC[C@]2(O)C(=O)CO [Prednisone]	60.49 per 1,000 patients			191.30 per 1,000 patients			
CC(C)c1cccc(C(C)C)c1O [Propofol]	261.45 per 1,000 patients			287.82 per 1,000 patients		Y^17	Y^16
C=CC[C@@H]1/C=C(\C)C[C@H](C)C[C@H](OC)[C@H]2O[C@@](O)(C(=O)C(=O)N3CCCC[C@H]3C(=O)O[C@H](/C(C)=C/[C@@H]3CC[C@@H](O)[C@H](OC)C3)[C@H](C)[C@@H](O)CC1=O)[C@H](C)C[C@@H]2OC [Tacrolimus]	40 per 1,000 patients			153.28 per 1,000 patients			
CN[C@H](CC(C)C)C(=O)N[C@H]1C(=O)N[C@@H](CC(N)=O)C(=O)N[C@H]2C(=O)N[C@H]3C(=O)N[C@H](C(=O)N[C@H](C(=O)O)c4cc(O)cc(O)c4-c4cc3ccc4O)[C@H](O)c3ccc(c(Cl)c3)Oc3cc2cc(c3O[C@@H]2O[C@H](CO)[C@@H](O)[C@H](O)[C@H]2O[C@H]2C[C@](C)(N)[C@H](O)[C@H](C)O2)Oc2ccc(cc2Cl)[C@H]1O [Vancomycin]	229.29 per 1,000 patients			300.03 per 1,000 patients			
Glucagon	129.74 per 1,000 patients			176.04 per 1,000 patients	−0.050		
Insulin	172.01 per 1,000 patients			241.12 per 1,000 patients			
